Results published in patent US20120283235A1, “Dermatologic and Cosmetic Compositions” (DISCOVERY PARTNERS LLC, priority 2009, published 2012).

Tested on: Adult human dermal fibroblasts
Test: Collagen type I in human dermal fibroblast conditioned media
Assay type: cell-based
Conditions: MAP 100 ug/ml; Vit. C 10 ug/ml; FIG. 1
Procedure: Adult human dermal fibroblasts (facial cells, from Cell Applications, Inc. San Diego, Calif., Catalog #106-05A, Lot 1339) were incubated for seventy-two hours in Fibroblast Growth Serum (Cell Applications, cat. #116-500). Four test formulations, each formulation used at three final test sample dilutions of 2.5%, 0.5% and 0.05%, were added to the incubated cells. All concentrations expressed in weight/weight unless otherwise noted: • (i) Test Formulation #1, CHL-01-057 (labeled “1”) served as a control and contained 90% purified water and 10% butylene glycol; • (ii) Test Formulation #2, CHL-01-053 (labeled “2”) containing 0.2% of 1-Disodium Copper Chlorin E4 in 10% butylene glycol and 89.8% purified water; • (iii) Test Formulation #3, (labeled #3) CHL-01-0 51 containing 0.2% Sodium Copper Chlorophyllin complex, USP in 10% butylene glycol and 89.8% purified water; • (iv) Test Formulation #4, CHL-01-055 (labeled “4”) containing 0.2% Sodium Zinc Chlorophyllin in 10% butylene glycol and 89.8% purified water. Based on the final dilutions, the amount of chlorin, chlorophyllin, or control compound added to the cell culture was 50 ppm, 10 ppm, and 1 ppm (ppm=parts per million by weight). Each of the above formulations was prepared by adding butylene glycol to water and mixing on a heating plate with a magnetic stirrer until the glycol fully dissolved. […]

In the case of `O=C1O[C@H]([C@@H](O)CO)C([O-])=C1OP(=O)([O-])[O-].O=C1O[C@H]([C@@H](O)CO)C([O-])=C1OP(=O)([O-])[O-].[Mg+2].[Mg+2].[Mg+2]` [Magnesium Ascorbyl Phosphate, magnesium ascorbyl phosphate], the “stimulatory activity on type 1 collagen production (positive controls)” value is reported as “strong stimulatory activity”.

For `O=C1O[C@H]([C@@H](O)CO)C(O)=C1O` [vitamin C, ascorbic acid], the “stimulatory activity on type 1 collagen production (positive controls)” value was “strong stimulatory activity”.
